This assay deals with T1, MMP9 mediated gelatinase activity (Rattus norvegicus, UniProt P50282).
T1 construct: from tissue; host or cells: frozen liver sections of female Lewis rats
In words: In situ zymography of gelatinase activity in livers of SCW-induced rats dosed with Compound-α. Format: in vivo. To be noted: for Intensity, Rat 1 / Intensity, Rat 2 / Intensity, Rat 3 / Intensity, Mean: SCW, liver; for Intensity, Mean: n=3. The source says:
In situ zymography provides an alternative approach to assess active MMP9 in tissues (Frederiks). Tissue sections are overlain with fluorescene-conjugated gelatin wherein the conjugation is sufficiently dense to cause the fluorescene to be dye-quenched (DQ). Proteolytic degradation of the DQ-gelatin releases the fluorescene from the quenching effect giving rise to bright green fluorescence at the site of degradation. Because in situ zymography requires the use of frozen sections, calcified tissues are problematic. However, an additional feature of the SCW arthritis model is the development of hepatic granulomatous disease (J Immunol; 1986; 137:2199-2209), and MMP9 reportedly plays a role in macrophage recruitment in the granulomas response to mycobacteria (Infect Immun; 2006; 74:6135-6144). Consequently, granulomatous livers from SCW-treated rats were assessed for active MMP9 by in situ zymography.
As described above, Female Lewis (LEW/N) rats, 5-6 weeks of age (80-100 g) were injected (i.p.) with saline or SCW PG-PS. On day 28, when the granulomatous response was well established, animals were sacrificed and livers were frozen in OCT cryo-sectioning medium and 10 μm sections were cut on a Cryome HM 500 M cryotome and mounted on glass microscope slides. Sections were air dried briefly. MMP9 was confirmed as the source of the gelatinase activity in the liver by treating liver sections with monoclonal antibodies directed against the active site of the two major gelatinases MMP9 and MMP2. Liver sections overlain with 50 μL of 100 μg/mL neutralizing mouse monoclonal antibodies directed against MMP9 (Calbiochem, clone 6-6B), or MMP2 (Millipore, clone CA-4001), or with PBS for 1 hr at room temperature. Tissues were rinsed once with PBS, blotted, and briefly air dried and then overlain with DQ-gelatin (Invitrogen) dissolved to 1 mg/mL in deionized water and then diluted 1:10 in 1% wt/vol low gelling point agarose type VII (Sigma) in PBS. The sections were covered with coverslips, incubated in the dark at room temperature for 20 min, and imaged on an Olympus IX80 inverted microscope fitted with fluorescence optics, using SlideBook™ imaging software (Intelligent Imaging Innovations, Inc., Philadelphia, Pa.; version 5.0). Fluorescence intensity was determined (Table 8). When compared to a saline-treated rat, gelatinase activity was abundantly expressed in granulomatous liver sections obtained from a rat with SCW arthritis.
Next, liver in situ zymography was used to assess the relative presence of active MMP9 in rats dosed with vehicle vs. Compound-α. Female Lewis (LEW/N) rats, 5-6 weeks of age (80-100 g) were injected (i.p.) with saline or SCW PG-PS. Commencing on day 25, randomized groups of rats (n=3 rats/group) received vehicle or 20 or 50 mg/kg Compound-α BID by oral gavage. Vehicle consisted of an aqueous mixture containing 2% (v:v) N-methylpyrrolidone, 5% (v:v) glycerine, and 20% (w:v) captisol. Treatment continued daily through the morning of day 28. Four hrs after the AM dose on day 28, rats were sacrificed and livers assessed for active MMP9 by in situ zymography (Table 9). Gelatinase activity was increased markedly in SCW-induced rats, but activity was reduced by approximately 80% in animals treated with 50 mg/kg Compound-α.

[1] abbreviates: 20 mg/kg BID oral gavage Day 25-28.
[2] abbreviates: 50 mg/kg BID oral gavage Day 25-28.

The structures appear in SMILES notation.

T1 sequence (P50282 20-708): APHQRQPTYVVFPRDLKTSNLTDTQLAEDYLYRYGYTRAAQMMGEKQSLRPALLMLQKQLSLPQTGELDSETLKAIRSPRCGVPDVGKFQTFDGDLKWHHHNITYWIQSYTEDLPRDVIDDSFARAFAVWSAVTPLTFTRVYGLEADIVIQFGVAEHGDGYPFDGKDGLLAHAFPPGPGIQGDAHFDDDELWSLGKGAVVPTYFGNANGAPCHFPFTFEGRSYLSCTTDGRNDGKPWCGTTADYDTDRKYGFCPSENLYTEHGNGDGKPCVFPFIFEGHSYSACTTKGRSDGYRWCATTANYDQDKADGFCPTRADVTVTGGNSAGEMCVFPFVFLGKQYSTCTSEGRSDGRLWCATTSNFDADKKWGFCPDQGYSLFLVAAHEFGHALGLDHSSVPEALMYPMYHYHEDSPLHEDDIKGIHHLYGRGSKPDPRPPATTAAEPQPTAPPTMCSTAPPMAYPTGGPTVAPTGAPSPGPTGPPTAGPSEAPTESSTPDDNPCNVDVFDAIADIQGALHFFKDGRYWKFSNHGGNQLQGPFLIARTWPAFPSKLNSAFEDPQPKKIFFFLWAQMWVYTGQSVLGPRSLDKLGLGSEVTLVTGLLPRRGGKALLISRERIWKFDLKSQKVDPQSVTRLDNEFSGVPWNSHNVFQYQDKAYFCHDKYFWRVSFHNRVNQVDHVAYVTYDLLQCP

For `Cc1nc(C)c(-c2csc(Nc3cc(S(N)(=O)=O)ccc3OC(C)C)n2)s1` [Compound α, 3-(2′,4′-Dimethyl-[4,5′]bithiazolyl-2-ylamino)-4-isopropoxy-benzenesulfonamide.HBr], the “reduction of gelatinase activity in liver” value (50 mg/kg, SCW-induced rats, day 28) was “approximately 80%”. Moreover, under setting [1], the “Intensity, Rat 1” value stood at 43.0 RLU × 10^6; the “Intensity, Rat 2” value is 69.0 RLU × 10^6; the “Intensity, Rat 3” value is 53.7 RLU × 10^6; the “Intensity, Mean” value was 55.2 RLU × 10^6. For the same compound, under setting [2], the “Intensity, Rat 1” value is 3.2 RLU × 10^6; the “Intensity, Rat 2” value is reported as 25.6 RLU × 10^6; the “Intensity, Rat 3” value is reported as 4.5 RLU × 10^6; the “Intensity, Mean” value amounted to 11.1 RLU × 10^6.

Values taken from US20120129811A1, “TRICYCLIC INHIBITORS OF PRO-MATRIX METALLOPROTEINASE ACTIVATION” (priority 2010, published 2012).
